Key:
[1] = tested on: superovulated ewes (embryos recovered at the morula stage); experiment: Experiment 1: retinoid treatment of superovulated ewes, in vitro development of recovered morula-stage embryos; assay type: in vivo, sheep; conditions: for embryo quality score (grade 1=excellent to 4=degenerate) immediately after collection / in vitro blastocyst formation / embryonic hatching rate in vitro: ROH 500,000 IU, RA 15 mg; for embryo quality score (grade 1=excellent to 4=degenerate) immediately after collection / in vitro blastocyst formation: CIS 15 mg on first and last day of FSH; for embryo quality score (grade 1=excellent to 4=degenerate) immediately after collection: morula stage; for in vitro blastocyst formation: morulae cultured 72 h in TCM 199; for embryonic hatching rate in vitro: CIS 15 mg, morulae cultured 72 h
Description: (§1) Referring now to FIGS. 1 and 2, a series of experiments were carried out to examine the effect of retinoid administration on superovulated sheep. In these experiments, the estrous cycles of sexually mature crossbred ewes were synchronized using progestin implants (Synchromate B) combined with prostaglandin F2-alpha (Lutalyse) injections, and superovulation was induced by multiple FSH injections. Briefly, animals were administered one progestin implant and 6 days later received two Lutalyse injections (15 mg i.m.) 12 hours apart. Superovulation was induced using a total of 24 units of FSH administered twice daily in decreasing doses over 3 days (5.5, 4.4, 3.3 units per injection, respectively) beginning 9-11 days after implant administration. Retinoid treatments were administered on the first and last day of FSH injections. Implants were removed at the time of the fifth FSH injection, and animals were checked for estrus 24 hours later. […] All animals were maintained on high-quality hay and fed ad libitum, with free-choice access to a sheep and goat mineral premix that contained 1 million IU vitamin A per pound.
In the first experiment, performed under decreasing day length (fall), 25 ewes were randomly assigned to one of the following treatments: (1) all-trans retinol (ROH; 500,000 IU, n=6); (2) all-trans retinoic acid (RA; 15 mg, n=6); (3) 9-cis retinoic acid (CIS; 15 mg, n=7); or (4) vehicle (Control; n=6), which was corn oil. Animals were surgically ovohysterectomized at 144 hours post-implant removal, and uteri were gently flushed twice with culture medium (tissue culture medium 199 [TCM 199]) to collect morula stage embryos. Two ewes from the RA group wer dropped from the study: one because of a total lack of response to the FSH treatment, the other because of overstimulation resulting in more than 50 ovulations with none of the ova fertilizing. This left 4 animals in the RA group, 5 in each of the ROH and Control groups, and 7 in the CIS group.
Embryos (morulae) collected in experiments 1 and 2 were categorized according to morphology, developmental stage, and quality based on a procedure developed for bovine embryos. See, Lindner and Wright, Theriogenology 1983; 20:407-416. Quality grades ranged from 1 to 4, with 1=excellent, 2=good, 3=poor, and 4=degenerate. One individual, who was unaware of treatments at the time, performed all of the grading.
In the first two experiments, morula-stage embryos were cultured in TCM 199 with Earle's salt supplemented with 10% FBS and 1 mM glutamine. See, Bavister BD. Studies on the developmental blocks in cultured hamster embryos. In: Bavister BD (ed.), The Mammalian Preimplantation Embryo: Regulation of Growth and Differentiation in vitro. New York:Plenum Press; 1987:219-249. The FBS had been twice stripped of low molecular weight molecules with charcoal, and retinol concentrations were below detection levels as determined by fluorescent analysis. See, Selvaraj and Susheela, Clin Chim Acta 1970; 27:165-170. In the third experiment, 1- to 4-cell embryos were cultured in SOF supplemented with 3 mg/ml BSA and essential and nonessential amino acids. See, Carolan et al., Theriogenology 1995; 43:1115-1128. Both media were prepared weekly, filtered through a 0.2 um filter, and allowed to equilibrate for 2 hours in a humidified atmosphere at 38.5° C. containing 5% CO2 in air.
Morula-stage embryos (experiments 1 and 2) were washed a minimum of three times in the outer well of organ culture dishes and then transferred with a minimum amount of medium into the inner well, which contained 3 ml of TCM 199. Embryos from each ewe were cultured in one dish, and there were no significant differences in the average number of embryos per dish between treatments. Embryos were cultured for 96 hours and observed daily for blastocyst formation and complete hatching from the zona pellucida. No further development was observed after 72 hours in culture, and all data presented reflect that time period. […]

[2] = tested on: superovulated ewes (embryos recovered at the morula stage); experiment: Experiment 2: ROH treatment of superovulated ewes (winter), in vitro development of morula-stage embryos; assay type: in vivo, sheep
Description: as §1
The second experiment was a repetition of the first, with the exceptions that it was performed under increasing day length (winter) and only the ROH and Control treatments were administered (in combination with FSH) to 24 ewes (12 per treatment) not used in the previous experiment. One ewe from the Control group was dropped from the study for failure to respond to FSH treatment. […]
(§2) In the first two experiments, morula-stage embryos were cultured in TCM 199 with Earle's salt supplemented with 10% FBS and 1 mM glutamine. […] The FBS had been twice stripped of low molecular weight molecules with charcoal, and retinol concentrations were below detection levels as determined by fluorescent analysis. […]
(§3) Data were checked for normality and analyzed using the Statistical Analysis System (SAS Institute Inc., Cary, N.C.). […]

[3] = tested on: superovulated ewes (1- to 4-cell embryos); experiment: Experiment 3: ROH treatment of superovulated ewes, in vitro development of 1- to 4-cell embryos; assay type: in vivo, sheep; conditions: 1- to 4-cell embryos cultured in SOF
Description: as §1
The third study involved two identical experiments performed sequentially in the fall and winter. Results were not different between seasons, and the data were combined. A total of 24 ewes, not used in the previous experiments, received either ROH (n=12) or Control (n=12) treatment in combination with FSH, followed by natural mating at estrus, as in experiment 2. At 84 hours post-implant removal, ewes were salphincectomized and oviducts gently flushed with culture medium in order to recover 1- to 4-cell embryos.
as §2, with “glutamine. See, Bavister BD.” for “glutamine.”
as §3

[4] = tested on: in vitro produced bovine embryos (presumptive zygotes); experiment: In vitro retinol treatment of presumptive zygotes, blastocyst formation; assay type: cell-based; conditions: 7-8 days culture
Description: The effects of retinol and retinoic acid on early embryonic development of in vitro produced bovine embryos were investigated. Oocytes and their surrounding cumulus cells were collected from bovine ovaries, matured in vitro for 24 h and fertilized by standard procedures for 8-10 h. Presumptive zygotes were denuded of cumulus cells, washed and cultured in modified synthetic oviduct fluid (a standard culture medium) in the presence or absence of retinol ([…]) at 38.5° C. in a humidified atmosphere of 5% CO2 in air. Embryos were cultured for 7-8 days.
Blastocyst (a fluid filled ball of approximately 100 cells, containing a inner cell mass which gives rise to the fetus and a trophoblast which gives rise to the placenta) formation was used as an end point for in vitro development. The above experiment was performed three times using 210 embryos in each treatment group with 70 embryos/group (630 total, 210/treatment). Embryonic development to the blastocyst stage, expressed as % blastocyst/cleaved embryos, was control (no retinol)=28.33%, 1 uM Retinol=48.66%, 10 uM Retinol=57.33%.

[5] = tested on: recipient ewes receiving embryos from treated donor ewes; experiment: Pregnancy rates after transfer of frozen embryos from retinol-treated superovulated ewes; assay type: in vivo, sheep
Description: Twenty-four ewes were synchronized, superovulated and administered treatments, as described previously (Eberhardt, Will and Godkin. Biol Reprod 60, 1483-1487, 1999). Briefly, animals received a progestagen implant and six days later received two injections of prostaglandin F2-alpha (Lutalyse, Upjohn Co. Kalamazoo, Mich.) twelve hours apart. Superovulation was induced with 24 units of porcine follicle stimulating hormone (FSH, Sioux Biochemical, Sioux City, Iowa) in decreasing doses over 3 days beginning 9-11 days after implant administration. All-trans retinol was administered to twelve ewes in corn oil at 500,000 IU per injection on the first and last day of FSH injections. Control ewes (12) received corn oil without retinol.
Embryos at the morula stage of development (168 h post implant removal) were collected by gently flushing the uterus with phosphaste-buffered saline+2% bovine serum albumin (BSA) following surgical hysterectomy. Embryos were frozen by conventional methods (Leibo. Theriogenology 21: 767. 1984) using ethylene glycol as the cryoprotectant in a programmable freezer and stored in liquid N2. After three months, embryos were thawed briefly (30 seconds) at 37° C. and two embryos were transferred directly into the uterine horn of synchronized recipient ewes. Seven recipient ewes received embryos from retinol-treated ewes and 11 recipient ewes received embryos from control ewes. Pregnancy rates were determined by ultrasonography 30-40 days after transfer.

[6] = cited from earlier work

SMILES | embryo quality score (grade 1=excellent to 4=degenerate) immediately after collection [1] | in vitro blastocyst formation [1] | embryonic hatching rate in vitro [1] | fold increase in in vitro blastocyst formation compared to RA, CIS or Control animals ([1]; p<0.05) | fold increase in hatching rate in comparison with vehicle treatment [2] | hatching rate ([2]; ROH treatment of donor ewes, p<0.05) | percentage of embryos that formed blastocysts ([2]; ROH treatment of donor ewes, winter, n=243 embryos) | blastocyst hatching [3] | blastocyst formation ([3]; n=230 embryos, p<0.05) | embryos that progressed through the 8-cell in vitro block ([3]; p<0.05) | embryonic development to the blastocyst stage, % blastocyst/cleaved embryos ([4]; 1 uM Retinol in modified synthetic oviduct fluid) | embryonic development to the blastocyst stage, % blastocyst/cleaved embryos ([4]; 10 uM Retinol in modified synthetic oviduct fluid) | pregnancy rate of recipient ewes ([5]; donors given 500,000 IU per injection on first and last day of FSH, two frozen-thawed embryos transferred, ultrasonography 30-40 days after transfer) | number of the six pregnant recipient ewes carrying twins ([5]; embryos from retinol-treated donor ewes) | survival of all transferred embryos ([5]; embryos from retinol-treated donor ewes, 30-40 days after transfer) | solubility in ethanol, methanol, ether, fats, and oil ([6]; ethanol, methanol, ether, fats, oil) | solubility in water or aqueous salt solutions ([6]; water or aqueous salt solutions)
CC1=C(/C=C/C(C)=C/C=C/C(C)=C/CO)C(C)(C)CCC1 [ROH, all-trans retinol] | 1.9±0.1 | 72% | 73% | greater than 2 fold | ~3 fold | 70% | 70% | 71% | 79% | 94% | 48.66% | 57.33% | 86% | five | 78.6% | soluble | practically insoluble
CC1=C(/C=C/C(C)=C\C=C\C(C)=C\C(=O)O)C(C)(C)CCC1 [CIS, 9-cis retinoic acid] | 2.4±0.2 | 33% | 38% | – | – | – | – | – | – | – | – | – | – | – | – | – | –
CC1=C(/C=C/C(C)=C/C=C/C(C)=C/C(=O)O)C(C)(C)CCC1 [RA, all-trans retinoic acid] | – | 27% | 55% | – | – | – | – | – | – | – | – | – | – | – | – | – | –

Reference: patent publication US20020028849A1, “Use of retinol in assisted-reproduction protocols” (priority 2000, published 2002)
